# “Also recorded” adds a separate entry of the source.
# Columns and labels:
# Format in all cases: cell-based
# [1] = system: human WS1 fibroblast cells; assay: Senolytic activity on doxorubicin-induced senescent WS1 fibroblasts (crystal violet survival)
# Protocol: (§1) The successful conversion to the senescent cell phenotype was confirmed by morphological changes (flattening and cell enlargement) and positivity for lysosomal beta-galactosidase (β-GAL). The SA-β-GAL (senescence-associated β-GAL) senescence assay was performed with the SA-β-Gal Staining Kit (Cell Signaling Technology, Inc., Danvers, MA). Briefly, after fixation with […] for 15 min at room temperature, senescent cells were quantified by calculating the percentage of SA-β-GAL positive (blue stained) cells present in culture by examining 200 cells per well with the phase contrast microscope EVOS XL Cell Imaging System (Thermo Fisher; objective, 40X).
# Senolytic activity on senescent human cells (in 96-well plates) was evaluated after specific treatments (for 72 h), including vehicle (DMSO; negative control), quercetin (Que; positive control) or different compounds according to the ‘invention bearing identification codes as fully illustrated also in patent application WO 2019/008537 A1, filed on May 7, 2017 in the name of Vera Salus Ricerca SrI (FIGS. 1, 2 and 3) from page 91 to page 106 and in the relative Figures. At the end of the treatments, cell survival was quantified by crystal violet staining. Briefly, cells were fixed with paraformaldehyde (4%) in PBS for 20 min, washed (2X in distilled water) and stained with 1% crystal violet (for 20 min). After further washing with water (3X), 100 μl of acetic acid (10%) were added per well and the absorbance (λ=590 nm) measured with a Synergy spectrophotometer (AHSI). Each experiment was carried out in quadruplicate and repeated at least three times, on three different days. Senolytic activity was expressed as % of senescent cells eliminated with respect to the control condition (DMSO). Results were presented as means±SEM (standard error of mean) and related analyzes were performed with GraphPadPrism® 6.0 software (CA, USA).
# In a first step, the senolytic activities of the compounds according to the invention were investigated in human WS1 fibroblast cells (normal fibroblasts of cutaneous origin, ATCC® CRL-1502™). WS1 cell senescence was induced with 100 nM doxorubicin (24 h) and 12 days of recovery, while the senolytic activity was quantified after treatments with vehicle (DMSO), quercetin (Que, 20 μM), quercetin (20 μM) plus dasatinib (DAS, 200 nM; other positive control) or 18 distinct compounds according to the invention used at a concentration of 20 μM, alone (FIG. 1a) or in the presence of 200 nM dasatinib (FIG. 1b).
# [2] = system: human intestinal epithelium cells HCT116; assay: Senolytic activity on doxorubicin-induced senescent HCT116 cells (crystal violet survival); conditions: senescent HCT116, 1-60 μM, 72 h (FIG. 2a)
# Protocol: as §1
# (§2) Senolytic activity on senescent human cells (in 96-well plates) was evaluated after specific treatments (for 72 h), including vehicle (DMSO; negative control), quercetin (Que; positive control) or different compounds according to the ‘invention bearing identification codes as fully illustrated also in patent application WO 2019/008537 A1, filed on May 7, 2017 in the name of Vera Salus Ricerca SrI (FIGS. 1, 2 and 3) from page 91 to page 106 and in the relative Figures. At the end of the treatments, cell survival was quantified by crystal violet staining. […] After further washing with water (3X), 100 μl of acetic acid (10%) were added per well and the absorbance (λ=590 nm) measured with a Synergy spectrophotometer (AHSI). […]
# [3] = system: human renal epithelial cells 786-0; assay: Senolytic activity on doxorubicin-induced senescent 786-0 cells (crystal violet survival); conditions: senescent 786-0, 1-60 μM, 72 h (FIG. 2b)
# Protocol: as §1, §2
# [4] = system: human pancreatic epithelial cells PANC-1; assay: Senolytic activity on doxorubicin-induced senescent PANC-1 cells (crystal violet survival); conditions: senescent PANC-1, 1-60 μM, 72 h (FIG. 3a)
# Protocol: as §1, §2
# [5] = system: human hepatic epithelial cells HepG2; assay: Senolytic activity on doxorubicin-induced senescent HepG2 cells (crystal violet survival); conditions: senescent HepG2, 1-60 μM, 72 h (FIG. 3b)
# Protocol: as §1, §2
# [6] = system: human lung epithelium cells A549; assay: Senolytic activity on doxorubicin-induced senescent A549 cells (crystal violet survival); conditions: senescent A549, 1-60 μM, 72 h (FIG. 3c)
# Protocol: as §1, §2
smiles,measurement,setting,value
COc1ccc(-c2ccc(C(=O)NCCOCCOc3c(-c4ccc(O)c(O)c4)oc4cc(O)cc(O)c4c3=O)cc2)cc1 [29g],senolytic effect relative to that of quercetin,"[1]; senescent WS1, 20 μM alone vs quercetin 20 μM, 72 h (FIG. 1a)",~3 times
same,"senolytic effect in words, compared with the other compounds / treatments","[1]; senescent WS1, 20 μM alone, 72 h (FIG. 1a)",maximum senolytic effects; also recorded: higher senolytic effect than all the other compounds
same,senolytic effect of compound alone compared with the combination quercetin plus dasatinib,"[1]; senescent WS1, compound 20 μM alone vs quercetin 20 μM + dasatinib 200 nM, 72 h",greater than the combination of quercetin plus dasatinib
same,senolytic effect (% of senescent cells eliminated with respect to DMSO control),"[1]; senescent WS1, compound 20 μM alone, 72 h (FIG. 1a)",~60%
same,senolytic action compared with quercetin plus dasatinib,"[1]; senescent WS1, compound 20 μM in the presence of 200 nM dasatinib vs quercetin 20 μM + dasatinib 200 nM, 72 h (FIG. 1b)",more effective
same,senolytic activity compared with quercetin,[2],significantly higher than quercetin
same,senolytic activity compared with quercetin,[3],significantly higher than quercetin
same,senolytic activity compared with quercetin,[4],significantly higher than quercetin
same,senolytic activity compared with quercetin,[5],significantly higher than quercetin
same,senolytic activity compared with quercetin,[6],significantly higher than quercetin
